Legend:
[1] = target: TRKA kinase (Homo sapiens (Human), UniProt P04629); assay: Assay of small molecular compounds for inhibiting the activity of TRKA kinase (LANCE TR-FRET); format: biochemical
Summary of the method: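 LANCE TR-FRET with ULight-TK peptide; compounds pre-incubated 5 min with TRKA (2× solution 2 nM), then substrate/ATP added (4× mix: 400 nM peptide, 40 μM ATP). Reaction 60 min at room temperature in dark, 1% DMSO final; stopped, detection developed 60 min, signal read.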

[2] = target: VEGFR-2 kinase (Homo sapiens (Human), UniProt P35968); assay: Assay of small molecular compounds for inhibiting the activity of VEGFR-2 kinase (LANCE TR-FRET); format: biochemical; conditions: read-out: VEGFR2 IC50
Summary of the method: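 LANCE TR-FRET with human VEGFR-2 (2× stock 0.5 nM) preincubated 30 min with compound (final 2500 to 0.042 nM, 11-point 3-fold), then ULight-JAK-1 (Tyr1023) peptide/ATP added (4× stocks 200 nM/40 μM). Reaction 60 min room temperature, 4% DMSO; IC50 from inhibition-rate curve.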

[3] = tested on: Ba/F3-AXL cells; assay: Assay for inhibiting the proliferation of Ba/F3-AXL cells (CCK-8); format: cell-based; conditions: 72 hours of incubation, medium with 100 ng/mL hGas6, CCK-8
Procedure: The values were then imported into Graphpad Prism 5 software for curve fitting, and IC50 was calculated.

[4] = tested on: Ba/F3 LMNA-NTRK1 cells; assay: Assay for inhibiting the proliferation of Ba/F3 LMNA-NTRK1 cells (CCK-8); format: cell-based; conditions: Mus musculus, BaF3
Summary of the method: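 Cells were seeded and cultured overnight, then treated with graded compound concentrations (final DMSO 0.25%) for 72 h. CCK-8 was added for 1–2 h at 37 °C and OD450 read. Survival was normalised to untreated and cell-free blank wells, and IC50 was fitted.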

Sequence of TRKA kinase (P04629 33-796): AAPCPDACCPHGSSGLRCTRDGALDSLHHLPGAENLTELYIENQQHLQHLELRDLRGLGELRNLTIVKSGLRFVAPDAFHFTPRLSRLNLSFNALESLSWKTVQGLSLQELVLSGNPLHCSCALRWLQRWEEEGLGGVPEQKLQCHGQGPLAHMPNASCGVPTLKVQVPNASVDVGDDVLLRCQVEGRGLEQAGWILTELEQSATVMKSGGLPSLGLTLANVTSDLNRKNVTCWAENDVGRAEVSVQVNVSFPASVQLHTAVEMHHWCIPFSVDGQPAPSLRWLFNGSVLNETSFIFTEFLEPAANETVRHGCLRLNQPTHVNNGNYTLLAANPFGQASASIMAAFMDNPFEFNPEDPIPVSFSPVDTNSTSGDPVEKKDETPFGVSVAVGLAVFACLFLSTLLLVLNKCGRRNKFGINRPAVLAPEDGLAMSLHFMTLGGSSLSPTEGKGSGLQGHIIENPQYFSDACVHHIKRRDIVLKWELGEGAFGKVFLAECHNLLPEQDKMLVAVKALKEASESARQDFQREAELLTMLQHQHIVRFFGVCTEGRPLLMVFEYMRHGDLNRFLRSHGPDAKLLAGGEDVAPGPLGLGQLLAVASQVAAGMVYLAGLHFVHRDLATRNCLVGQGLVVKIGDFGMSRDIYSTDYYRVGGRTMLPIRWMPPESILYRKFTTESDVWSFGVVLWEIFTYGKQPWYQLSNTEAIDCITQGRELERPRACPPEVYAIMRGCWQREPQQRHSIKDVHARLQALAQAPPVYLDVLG
Sequence of VEGFR-2 kinase (P35968 20-1356): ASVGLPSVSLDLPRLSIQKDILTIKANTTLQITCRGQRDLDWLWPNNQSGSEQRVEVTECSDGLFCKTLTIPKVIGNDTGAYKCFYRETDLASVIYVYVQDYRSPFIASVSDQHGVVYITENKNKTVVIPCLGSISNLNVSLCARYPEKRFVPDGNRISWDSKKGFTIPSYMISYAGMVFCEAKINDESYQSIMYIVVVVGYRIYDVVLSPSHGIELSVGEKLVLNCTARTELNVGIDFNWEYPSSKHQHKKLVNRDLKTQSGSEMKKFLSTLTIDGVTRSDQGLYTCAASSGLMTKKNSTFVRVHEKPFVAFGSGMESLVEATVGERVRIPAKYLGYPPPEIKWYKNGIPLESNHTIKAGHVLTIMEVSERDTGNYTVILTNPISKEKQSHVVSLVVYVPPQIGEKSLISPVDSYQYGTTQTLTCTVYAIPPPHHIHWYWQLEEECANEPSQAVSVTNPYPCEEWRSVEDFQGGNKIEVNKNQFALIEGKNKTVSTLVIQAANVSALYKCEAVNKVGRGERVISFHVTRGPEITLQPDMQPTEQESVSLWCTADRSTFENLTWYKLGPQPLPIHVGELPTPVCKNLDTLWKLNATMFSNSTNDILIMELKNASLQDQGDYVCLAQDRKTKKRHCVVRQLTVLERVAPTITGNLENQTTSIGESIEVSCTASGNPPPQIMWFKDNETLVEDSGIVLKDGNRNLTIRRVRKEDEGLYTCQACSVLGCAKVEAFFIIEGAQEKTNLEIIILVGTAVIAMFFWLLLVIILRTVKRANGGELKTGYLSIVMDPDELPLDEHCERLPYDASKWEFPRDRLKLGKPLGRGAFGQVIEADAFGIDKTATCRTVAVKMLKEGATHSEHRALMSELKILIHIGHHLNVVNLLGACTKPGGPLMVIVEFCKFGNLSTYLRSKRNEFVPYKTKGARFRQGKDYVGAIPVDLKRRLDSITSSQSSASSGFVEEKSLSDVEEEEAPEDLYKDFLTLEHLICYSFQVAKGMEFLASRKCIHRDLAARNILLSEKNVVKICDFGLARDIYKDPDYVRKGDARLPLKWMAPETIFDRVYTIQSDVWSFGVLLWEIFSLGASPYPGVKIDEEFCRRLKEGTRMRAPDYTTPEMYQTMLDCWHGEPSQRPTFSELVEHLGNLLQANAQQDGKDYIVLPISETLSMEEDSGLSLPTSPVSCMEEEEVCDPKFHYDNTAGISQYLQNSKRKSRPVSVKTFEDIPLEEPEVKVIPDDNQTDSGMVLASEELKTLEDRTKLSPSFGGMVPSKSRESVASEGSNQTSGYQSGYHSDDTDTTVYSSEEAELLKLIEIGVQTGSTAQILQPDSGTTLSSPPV

## CCn1cc(C(=O)Nc2ccc(Oc3ccnc4cc(OCCCN5CCOCC5)c5c(c34)OCCO5)c(F)c2)c(=O)n(-c2ccc(F)cc2)c1=O [Example 38, N-(3-fluoro-4-((5-(3-morpholinopropoxy)-2,3-dihydro-[1,4]dioxino[2,3-f]quinolin-10-yl)oxy)phenyl)-3-(4-fluorophenyl)-1-ethyl-2,4-dioxo-1,2,3,4-tetrahydropyrimidine-5-carboxamide]
[1]
  IC50: < 50 nM
[2]
  IC50: 50 to 500 nM
[3]
  IC50: < 50 nM
[4]
  IC50: < 50 nM

## Cn1cc(C(=O)Nc2ccc(Oc3ccnc4cc(OCCCN5CCCCC5)c5c(c34)OCCO5)c(F)c2)c(=O)n(-c2ccc(F)cc2)c1=O [Example 39, N-(3-fluoro-4-((5-(3-(piperidin-1-yl)propoxy)-2,3-dihydro-[1,4]dioxino[2,3-f]quinolin-10-yl)oxy)phenyl)-3-(4-fluorophenyl)-1-methyl-2,4-dioxo-1,2,3,4-tetrahydropyrimidine-5-carboxamide]
[1]
  IC50: < 50 nM
[2]
  IC50: 50 to 500 nM
[3]
  IC50: < 50 nM
[4]
  IC50: < 50 nM

## CC(C)n1cc(C(=O)Nc2ccc(Oc3ccnc4cc(OCCCN5CCCCC5)c5c(c34)OCCO5)c(F)c2)c(=O)n(-c2ccc(F)cc2)c1=O [Example 40, N-(3-fluoro-4-((5-(3-(piperidin-1-yl)propoxy)-2,3-dihydro-[1,4]dioxino[2,3-f]quinolin-10-yl)oxy)phenyl)-3-(4-fluorophenyl)-1-isopropyl-2,4-dioxo-1,2,3,4-tetrahydropyrimidine-5-carboxamide]
[1]
  IC50: < 50 nM
[2]
  IC50: 50 to 500 nM
[3]
  IC50: < 50 nM
[4]
  IC50: < 50 nM

## CCn1cc(C(=O)Nc2ccc(Oc3ccnc4cc(OCCCN5CCCCC5)c5c(c34)OCCO5)c(F)c2)c(=O)n(-c2ccc(F)cc2)c1=O [Example 41, N-(3-fluoro-4-((5-(3-(piperidin-1-yl)propoxy)-2,3-dihydro-[1,4]dioxino[2,3-f]quinolin-10-yl)oxy)phenyl)-3-(4-fluorophenyl)-1-ethyl-2,4-dioxo-1,2,3,4-tetrahydropyrimidine-5-carboxamide]
[1]
  IC50: < 50 nM
[2]
  IC50: 50 to 500 nM
[3]
  IC50: < 50 nM
[4]
  IC50: < 50 nM

## COCCOc1cc2nccc(Oc3ccc(NC(=O)c4cn(C)c(=O)n(-c5ccc(F)cc5)c4=O)cc3F)c2c2c1OCCO2 [Example 42, N-(3-fluoro-4-((5-(2-methoxyethoxy)-2,3-dihydro-[1,4]dioxino[2,3-f]quinolin-10-yl)oxy)phenyl)-3-(4-fluorophenyl)-1-methyl-2,4-dioxo-1,2,3,4-tetrahydropyrimidine-5-carboxamide]
[1]
  IC50: < 50 nM
[2]
  IC50: 50 to 500 nM
[3]
  IC50: < 50 nM
[4]
  IC50: < 50 nM

## CC(C)n1cc(C(=O)Nc2ccc(Oc3ccnc4cc(OCCCN5CCC(C)(O)CC5)c5c(c34)OCCO5)c(F)c2)c(=O)n(-c2ccc(F)cc2)c1=O [Example 94, N-(3-fluoro-4-((5-(3-(4-methyl-4-hydroxypiperidin-1-yl)propoxy)-2,3-dihydro-[1,4]dioxino[2,3-f]quinolin-10-yl)oxy)phenyl)-3-(4-fluorophenyl)-1-isopropyl-2,4-dioxo-1,2,3,4-tetrahydropyrimidine-5-carboxamide]
[1]
  IC50: < 50 nM
[2]
  IC50: 500 to 5000 nM
[3]
  IC50: < 50 nM
[4]
  IC50: 50 to 200 nM

## COCCN(C)CCCOc1cc2nccc(Oc3ccc(NC(=O)c4cn(C(C)C)c(=O)n(-c5ccc(F)cc5)c4=O)cc3F)c2c2c1OCCO2 [Example 95, N-(3-fluoro-4-((5-(3-((2-methoxyethyl)(methyl)amino)propoxy)-2,3-dihydro-[1,4]dioxino[2,3-f]quinolin-10-yl)oxy)phenyl)-3-(4-fluorophenyl)-1-isopropyl-2,4-dioxo-1,2,3,4-tetrahydropyrimidine-5-carboxamide]
[1]
  IC50: < 50 nM
[2]
  IC50: 500 to 5000 nM
[3]
  IC50: < 50 nM
[4]
  IC50: 50 to 200 nM

## CC(C)n1cc(C(=O)Nc2ccc(Oc3ccnc4cc(OCCCN(C)C5CCC5)c5c(c34)OCCO5)c(F)c2)c(=O)n(-c2ccc(F)cc2)c1=O [Example 96, N-(3-fluoro-4-((5-(3-((cyclobutyl)(methyl)amino)propoxy)-2,3-dihydro-[1,4]dioxino[2,3-f]quinolin-10-yl)oxy)phenyl)-3-(4-fluorophenyl)-1-isopropyl-2,4-dioxo-1,2,3,4-tetrahydropyrimidine-5-carboxamide]
[1]
  IC50: < 50 nM
[2]
  IC50: 500 to 5000 nM
[3]
  IC50: < 50 nM
[4]
  IC50: < 50 nM

## Cn1cc(C(=O)Nc2ccc(Oc3ccnc4cc(OCCCN5CCOCC5)c5c(c34)OCCO5)cc2Cl)c(=O)n(-c2ccc(F)cc2)c1=O [Example 98, N-(2-chloro-4-((5-(3-morpholinopropoxy)-2,3-dihydro-[1,4]dioxino[2,3-f]quinolin-10-yl)oxy)phenyl)-3-(4-fluorophenyl)-1-methyl-2,4-dioxo-1,2,3,4-tetrahydropyrimidine-5-carboxamide]
[1]
  IC50: < 50 nM
[2]
  IC50: 500 to 5000 nM
[3]
  IC50: < 50 nM
[4]
  IC50: < 50 nM

## COc1cc2nccc(Oc3ccc(NC(=O)c4cn(CC(=O)O)c(=O)n(-c5ccc(F)cc5)c4=O)cc3F)c2c2c1OCCO2 [Example 104, 2-(5-((3-fluoro-4-((5-methoxy-2,3-dihydro-[1,4]dioxino[2,3-f]quinolin-10-yl)oxy)phenyl)carbamoyl)-3-(4-fluorophenyl)-2,4-dioxo-3,4-dihydropyrimidin-1(2H)-yl)acetic acid]
[1]
  IC50: < 50 nM
[2]
  IC50: > 5000 nM
[3]
  IC50: > 5000 nM
[4]
  IC50: > 1000 nM

## CCOc1ccn(-c2ccc(F)cc2)c(=O)c1C(=O)Nc1ccc(Oc2ccnc3cc(OCC4(N)CC4)c4c(c23)OCCO4)c(F)c1 [Example 105, N-(4-((5-((1-aminocyclopropyl)methoxy)-2,3-dihydro-[1,4]dioxino[2,3-f]quinolin-10-yl)oxy)-3-fluorophenyl)-4-ethoxy-1-(4-fluorophenyl)-2-oxo-1,2-dihydropyridine-3-carboxamide]
[1]
  IC50: < 50 nM
[2]
  IC50: 50 to 500 nM
[3]
  IC50: < 50 nM
[4]
  IC50: 50 to 200 nM

## CCOc1ccn(-c2ccc(C)cc2)c(=O)c1C(=O)Nc1ccc(Oc2ccnc3cc(OC)c4c(c23)OCCO4)c(F)c1 [Example 112, N-(3-fluoro-4-((5-methoxy-2,3-dihydro-[1,4]dioxino[2,3-f]quinolin-10-yl)oxy)phenyl)-2-oxo-4-ethoxy-1-(4-methylphenyl)-1,2-dihydropyridin-3-carboxamide]
[1]
  IC50: < 50 nM
[2]
  IC50: 50 to 500 nM
[3]
  IC50: < 50 nM
[4]
  IC50: < 50 nM

## CCOc1ccn(-c2ccc(Cl)cc2)c(=O)c1C(=O)Nc1ccc(Oc2ccnc3cc(OC)c4c(c23)OCCO4)c(F)c1 [Example 113, N-(3-fluoro-4-((5-methoxy-2,3-dihydro-[1,4]dioxino[2,3-f]quinolin-10-yl)oxy)phenyl)-2-oxo-4-ethoxy-1-(4-chlorophenyl)-1,2-dihydropyridin-3-carboxamide]
[1]
  IC50: < 50 nM
[2]
  IC50: 50 to 500 nM
[3]
  IC50: < 50 nM
[4]
  IC50: < 50 nM

## CCOc1ccn(-c2ccc(F)cc2)c(=O)c1C(=O)Nc1cc(F)c(Oc2ccnc3cc(OC)c4c(c23)OCCO4)cc1Cl [Example 115, N-(2-chloro-5-fluoro-4-((5-methoxy-2,3-dihydro-[1,4]dioxino[2,3-f]quinolin-10-yl)oxy)phenyl)-4-ethoxy-2-oxo-1-(4-fluorophenyl)-1,2-dihydropyridin-3-carboxamide]
[1]
  IC50: < 50 nM
[2]
  IC50: 500 to 5000 nM
[3]
  IC50: < 50 nM
[4]
  IC50: < 50 nM

## COc1cc2nccc(Oc3cc(Cl)c(NC(=O)c4cn(C)c(=O)n(-c5ccc(F)cc5)c4=O)cc3F)c2c2c1OCCO2 [Example 116, N-(2-chloro-5-fluoro-4-((5-methoxy-2,3-dihydro-[1,4]dioxino[2,3-f]quinolin-10-yl)oxy)phenyl)-3-(4-fluorophenyl)-1-methyl-2,4-dioxo-1,2,3,4-tetrahydropyrimidine-5-carboxamide]
[1]
  IC50: < 50 nM
[2]
  IC50: > 5000 nM
[3]
  IC50: < 50 nM
[4]
  IC50: < 50 nM

## CCOc1ccn(-c2ccc(F)cc2)c(=O)c1C(=O)Nc1ccc(Oc2ccnc3cc(OCC(C)(C)O)c4c(c23)OCCO4)c(F)c1 [Example 120, N-(3-fluoro-4-((5-(2-hydroxy-2-methylpropoxy)-2,3-dihydro-[1,4]dioxino[2,3-f]quinolin-10-yl)oxy)phenyl)-4-ethoxy-1-(4-fluorophenyl)-2-oxo-1,2-dihydropyridine-3-carboxamide]
[1]
  IC50: < 50 nM
[2]
  IC50: 50 to 500 nM
[3]
  IC50: < 50 nM
[4]
  IC50: < 50 nM

## CC(C)n1cc(C(=O)Nc2ccc(Oc3ccnc4cc(OCC(C)(C)O)c5c(c34)OCCO5)c(F)c2)c(=O)n(-c2ccc(F)cc2)c1=O [Example 122, N-(3-fluoro-4-((5-(2-hydroxy-2-methylpropoxy)-2,3-dihydro-[1,4]dioxino[2,3-f]quinolin-10-yl)oxy)phenyl)-3-(4-fluorophenyl)-1-isopropyl-2,4-dioxo-1,2,3,4-tetrahydropyrimidine-5-carboxamide]
[1]
  IC50: < 50 nM
[2]
  IC50: 500 to 5000 nM
[3]
  IC50: < 50 nM
[4]
  IC50: < 50 nM

## CCOc1ccn(-c2ccc(F)cc2)c(=O)c1C(=O)Nc1ccc(Oc2ccnc3cc(OC)c4c(c23)OCCO4)cc1Cl [Example 126, N-(2-chloro-4-((5-methoxy-2,3-dihydro-[1,4]dioxino[2,3-f]quinolin-10-yl)oxy)phenyl)-1-(4-fluorophenyl)-4-ethoxy-2-oxo-1,2-dihydropyridine-3-carboxamide]
[1]
  IC50: < 50 nM
[2]
  IC50: 50 to 500 nM
[3]
  IC50: < 50 nM
[4]
  IC50: < 50 nM

— US12202835B2, “Substituted aromatic ring-linked dioxinoquinazolines and dioxinoquinolines as kinase inhibitors” (BEIJING SCITECH-MQ PHARMACEUTICALS LIMITED, priority 2018, dated 2025)
